Experimental data from patent US6930131B2, “Aryl substituted 3-ethoxy phenyl trifluoromethane sulfonamides for the treatment of non-insulin dependent diabetes mellitus (NIDDM)” (Wyeth, priority 2002, dated 2005).

Structure (SMILES) | melting point
COc1ccc(-c2ccc(COCCc3cccc(NS(=O)(=O)C(F)(F)F)c3)cc2)cc1 [Example 4, C,C,C-Trifluoro-N-{3-[2-(4′-methoxy-biphenyl-4-ylmethoxy)-ethyl]-phenyl}-methanesulfonamide] | 96 to 98 °C
O=S(=O)(Nc1cccc(CCOCc2ccc(-c3cccc(Cl)c3)cc2)c1)C(F)(F)F [Example 5, N-{3-[2-(3′-Chloro-biphenyl-4-ylmethoxy)-ethyl]-phenyl}-C,C,C-trifluoromethane sulfonamide] | 105 to 107 °C
O=S(=O)(Nc1cccc(CCOCc2ccc(-c3ccccn3)cc2)c1)C(F)(F)F [Example 8, C,C,C-Trifluoro-N-{3-[2-(4-pyridin-2-yl-benzyloxy)-ethyl]-phenyl}-methane sulfonamide] | 95 to 96 °C
O=S(=O)(Nc1cccc(CCOCc2ccc(-c3ccc(F)cc3)cc2F)c1)C(F)(F)F [Example 10, N-{3-[2-(3,4′-Difluoro-biphenyl-4-ylmethoxy)-ethyl]-phenyl}-C,C,C-trifluoro-methanesulfonamide] | 65 to 67 °C
O=S(=O)(Nc1cccc(CCOCc2ccc(-c3ccc(C(F)(F)F)cc3)cc2F)c1)C(F)(F)F [Example 14, C,C,C-Trifluoro-N-{3-[2-(3-fluoro-4′-trifluoromethyl-biphenyl-4-yl-methoxy)-ethyl]-phenyl}-methanesulfonamide] | 121 to 122 °C
O=S(=O)(Nc1cccc(CCOCc2ccc(-c3ccc(Cl)cc3Cl)cc2F)c1)C(F)(F)F [Example 15, N-{3-[2-(2′,4′-Dichloro-3-fluoro-biphenyl-4-ylmethoxy)-ethyl]-phenyl}-C,C,C-trifluoro-methanesulfonamide] | 65 to 66 °C
Cc1cccc(-c2ccc(COCCc3cccc(NS(=O)(=O)C(F)(F)F)c3)c(F)c2)c1 [Example 16, C,C,C-Trifluoro-N-{3-[2-(3-fluoro-3′-methyl-biphenyl-4-yl-methoxy)-ethyl]-phenyl}-methanesulfonamide] | 60 to 61 °C
O=S(=O)(Nc1cccc(CCOCc2ccc(-c3cccc(C(F)(F)F)c3)cc2F)c1)C(F)(F)F [Example 17, C,C,C-Trifluoro-N-{3-[2-(3-fluoro-3′-trifluoromethyl-biphenyl-4-yl-methoxy)-ethyl]-phenyl}-methanesulfonamide] | 60 to 61 °C
O=S(=O)(Nc1cccc(CCOCc2ccc(-c3ccc(OC(F)(F)F)cc3)cc2F)c1)C(F)(F)F [Example 18, C,C,C-Trifluoro-N-{3-[2-(3-fluoro-4′-trifluoromethoxy-biphenyl-4-yl-methoxy)-ethyl]-phenyl}-methanesulfonamide] | 114 to 115 °C
COc1cccc(-c2ccc(COCCc3cccc(NS(=O)(=O)C(F)(F)F)c3)c(F)c2)c1 [Example 20, C,C,C-Trifluoro-N-{3-[2-(3-fluoro-3′-methoxy-biphenyl-4-yl-methoxy)ethyl]-phenyl}-methanesulfonamide] | 80 to 82 °C
O=S(=O)(Nc1ccc(CCOCc2ccccc2-c2ccccc2)cc1)C(F)(F)F [Example 27, N-{4-[2-(Biphenyl-2-ylmethoxy)-ethyl]-phenyl}-C,C,C-trifluoromethanesulfonamide] | 79 to 81 °C
COc1ccc(-c2cccc(COCCc3cccc(NS(=O)(=O)C(F)(F)F)c3)c2)cc1 [Example 28, C,C,C-Trifluoro-N-{3-[2-(4′-methoxy-biphenyl-3-ylmethoxy)-ethyl]-phenyl}-methanesulfonamide] | 88 to 90 °C
O=S(=O)(Nc1cccc(CCOCc2cc(-c3ccc(F)cc3)ccc2Cl)c1)C(F)(F)F [Example 29, N-{3-[2-(4-Chloro-4′-fluoro-biphenyl-3-ylmethoxy)-ethyl]-phenyl)-C,C,C-trifluoro-methanesulfonamide] | 80 to 82 °C
COc1ccc(-c2ccc(F)cc2)cc1COCCc1cccc(NS(=O)(=O)C(F)(F)F)c1 [Example 30, N-{3-[2-(4′-Fluoro-4-methoxy-biphenyl-3-ylmethoxy)-ethyl]-phenyl)-C,C,C-trifluoro-methanesulfonamide] | 55 to 57 °C
COc1ccc(-c2ccc(COCCc3cccc(NS(=O)(=O)C(F)(F)F)c3)c(F)c2)cc1 [Example 32, N-{3-[2-(3-fluoro-4′-methoxy-biphenyl-4-ylmethoxy)-ethyl]-phenyl)-C,C,C-trifluoromethanesulfonamide] | 82 to 84 °C
Cc1c(COCc2cccc(-c3nn[nH]n3)c2)cccc1-c1ccccc1 [Example 33, 5-[3-(2-Methyl-biphenyl-3-ylmethoxymethyl)-phenyl]-2H-tetrazole] | 112 to 114 °C
O=S(=O)(Nc1cccc(CCOCc2cccc(-c3cc(Cl)cc(Cl)c3)c2)c1)C(F)(F)F [Example 34, N-{3-[2-(3′,5′-Dichloro-biphenyl-3-ylmethoxy)-ethyl]-phenyl)-C,C,C-trifluoro-methanesulfonamide] | 52 to 54 °C
O=S(=O)(Nc1cccc(CCOCc2ccc(-c3cc(Cl)cc(Cl)c3)cc2)c1)C(F)(F)F [Example 35, N-{3-[2-(3′,5′-Dichloro-biphenyl-4-ylmethoxy)-ethyl]-phenyl)-C,C,C-trifluoro-methanesulfonamide] | 70 to 72 °C

Structure (SMILES) | melting point
O=S(=O)(Nc1cccc(CCOCc2cccc(-c3ccc(F)cc3)c2)c1)C(F)(F)F [Example 36, N-{3-[2-(4′-Fluoro-biphenyl-3-ylmethoxy)-ethyl]-phenyl)-C,C,C-trifluoro-methanesulfonamide] | 48 to 50 °C
O=S(=O)(Nc1cccc(CCOCc2ccc(-c3ccc(F)cc3)cc2)c1)C(F)(F)F [Example 37, N-{3-[2-(4′-Fluoro-biphenyl-4-ylmethoxy)-ethyl]-phenyl)-C,C,C-trifluoro-methanesulfonamide] | 65 to 67 °C
NC(=O)Nc1ccc(CCOCc2ccccc2-c2ccccc2)cc1 [Example 38, {4-[2-(Biphenyl-2-ylmethoxy)-ethyl]-phenyl}-urea] | 143 to 144 °C
COc1ccc(-c2cccc(COCCc3cccc(NC(N)=O)c3)c2)cc1 [Example 39, {3-[2-(4′-Methoxy-biphenyl-3-ylmethoxy)-ethyl]-phenyl}-urea] | 87 to 89 °C
COc1ccc(-c2ccc(Cl)cc2)cc1COCCc1cccc(NS(=O)(=O)C(F)(F)F)c1 [Example 40, N-{3-[2-(4′-Chloro-4-methoxy-biphenyl-3-ylmethoxy)-ethyl]-phenyl}-C,C,C-trifluoromethanesulfonamide] | 99 to 101 °C
COc1ccc(-c2ccc(Cl)cc2)cc1COCCc1cccc(NC(N)=O)c1 [Example 41, {3-[2-(4′-Chloro-4-methoxy-biphenyl-3-ylmethoxy)-ethyl]-phenyl}-urea] | 155 °C (dec.)
O=S(=O)(Nc1cccc(CCOCc2csc(-c3ccc(C(F)(F)F)cc3)n2)c1)C(F)(F)F [Example 52, C,C,C-Trifluoro-N-(3-{2-[2-(4-trifluoromethyl-phenyl)-thiazol-4-ylmethoxy]-ethyl}-phenyl)-methanesulfonamide] | 117 to 119 °C
O=S(=O)(Nc1cccc(CCOCc2csc(-c3ccc(C(F)(F)F)cn3)n2)c1)C(F)(F)F [Example 57, C,C,C-Trifluoro-N-(3-{2-[2-(5-trifluoromethyl-pyridin-2-yl)-thiazol-4-yl-methoxy]ethyl}-phenyl)-methanesulfonamide] | 116 to 117 °C
O=S(=O)(Nc1cccc(CCOCc2csc(-c3ccccc3)n2)c1)C(F)(F)F [Example 58, C,C,C-Trifluoro-N-{3-[2-(2-phenyl-thiazol-4-ylmethoxy)-ethyl]phenyl}-methane sulfonamide] | 112 to 113 °C
COc1ccc(-c2nc(COCCc3cccc(NS(=O)(=O)C(F)(F)F)c3)cs2)cc1 [Example 59, C,C,C-Trifluoro-N-(3-{2-[2-(4-methoxy-phenyl)-thiazol-4-ylmethoxy]-ethyl}-phenyl)-methanesulfonamide] | 112 to 113 °C
O=S(=O)(Nc1cccc(CCOCc2csc(-c3ccccc3Cl)n2)c1)C(F)(F)F [Example 60, N-(3-{2-[2-(2-Chloro-phenyl)-thiazol-4-ylmethoxy]-ethyl}-phenyl)-C,C,C-trifluoro-methanesulfonamide] | 86 to 87 °C
O=S(=O)(Nc1cccc(CCOCc2csc(-c3ccc(OC(F)(F)F)cc3)n2)c1)C(F)(F)F [Example 61, C,C,C-Trifluoro-N-(3-{2-[2-(4-trifluoromethoxy-phenyl)-thiazol-4-yl-methoxy]-ethyl}-phenyl)-methanesulfonamide] | 115 to 116 °C
O=S(=O)(Nc1cccc(CCOCc2nc(-c3ccc(F)cc3)sc2Br)c1)C(F)(F)F [Example 62, N-(3-{2-[5-Bromo-2-(4-fluoro-phenyl)-thiazol-4-ylmethoxy]-ethyl}-phenyl)-C,C,C-trifluoromethanesulfonamide] | 84 to 85 °C
O=S(=O)(Nc1cccc(CCOCc2nc(-c3ccc(C(F)(F)F)cc3)sc2Cl)c1)C(F)(F)F [Example 63, N-(3-{2-[5-Chloro-2-(4-trifluoromethyl-phenyl)-thiazol-4-ylmethoxy]-ethyl}-phenyl)-C,C,C-trifluoromethanesulfonamide] | 107 to 109 °C
O=S(=O)(Nc1cccc(CCOCc2cccc(-c3ccc(F)cc3)n2)c1)C(F)(F)F [Example 64, C,C,C-Trifluoro-N-(3-{2-[6-(4-fluoro-phenyl)-pyridin-2-ylmethoxy]-ethyl}-phenyl)-methanesulfonamide] | 71 to 73 °C
O=S(=O)(Nc1cccc(CCOCc2cccc(-c3ccccc3)n2)c1)C(F)(F)F [Example 65, C,C,C-Trifluoro-N-{3-[2-(6-phenyl-pyridin-2-ylmethoxy)-ethyl]-phenyl}-methane sulfonamide] | 75 to 77 °C
O=S(=O)(Nc1cccc(CCOCc2sc3ccccc3c2Cl)c1)C(F)(F)F [Example 66, N-{3-[2-(3-Chloro-benzo[b]thiophen-2-ylmethoxy)-ethyl]-phenyl}-C,C,C-trifluoro-methanesulfonamide] | 85 to 87 °C
O=S(=O)(Nc1cccc(CCOCc2ccc(C3CCCCC3)cc2)c1)C(F)(F)F [Example 68, N-{3-[2-(4-cyclohexyl-benzyloxy)-ethyl]-phenyl}-C,C,C-trifluoro-methane sulfonamide] | 90 to 92 °C
